Laboratory results: patent publication US8865771B2, “Amides useful as inhibitors of voltage-gated sodium channels” (Vertex Pharmaceuticals Incorporated, priority 2007, dated 2014)
Where two headings read alike, the source gives them in different places.

Legend:
NaV1.3 [1] = target: T1, NaV1.3 (Homo sapiens, UniProt Q9NY46); experiment: NaV inhibition, VIPR optical membrane potential assay with electrical stimulation; type: cell-based; set-up: expressed in transfected cells; host or cells: HEK293; conditions: activity against NaV 1.3 channel
Procedure: (§1) Compounds of the invention are useful as antagonists of voltage-gated sodium ion channels. Antagonist properties of test compounds were assessed as follows. Cells expressing the NaV of interest were placed into microtiter plates. After an incubation period, the cells were stained with fluorescent dyes sensitive to the transmembrane potential. The test compounds were added to the microtiter plate. The cells were stimulated with either a chemical or electrical means to evoke a NaV dependent membrane potential change from unblocked channels, which was detected and measured with trans-membrane potential-sensitive dyes. Antagonists were detected as a decreased membrane potential response to the stimulus. The optical membrane potential assay utilized voltage-sensitive FRET sensors described by Gonzalez and Tsien (See Gonzalez, J. E. and R. Y. Tsien (1995) “Voltage sensing by fluorescence resonance energy transfer in single cells” Biophys J 69(4): 1272-80, and Gonzalez, J. E. and R. Y. Tsien (1997) “Improved indicators of cell membrane potential that use fluorescence resonance energy transfer” Chem Biol 4(4): 269-77) in combination with instrumentation for measuring fluorescence changes such as the Voltage/Ion Probe Reader (VIPR®) (See Gonzalez, J. E., K. Oades, et al. (1999) “Cell-based assays and instrumentation for screening ion-channel targets” Drug Discov Today 4(9): 431-439).
(§2) C) VIPR® Optical Membrane Potential Assay Method with Electrical Stimulation
(§3) The following is an example of how NaV1.3 inhibition activity is measured using the optical membrane potential method#2. Other subtypes are performed in an analogous mode in a cell line expressing the NaV of interest.
HEK293 cells stably expressing NaV 1.3 are plated into 96-well microtiter plates. After an appropriate incubation period, the cells are stained with the voltage sensitive dyes CC2-DMPE/DiSBAC2(3) as follows.
10 mM CC2-DMPE is vortexed with an equivalent volume of 10% pluronic, followed by vortexing in required amount of HBSS containing 10 mM HEPES. Each cell plate will require 5 mL of 2×CC2-DMPE. 50 μL of 2×CC2-DMPE is to wells containing washed cells, resulting in a 10 μM final staining concentration. The cells are stained for 30 minutes in the dark at RT.
The 2×DiSBAC2(3) solution can be used to solvate compound plates. Note that compound plates are made at 2× drug concentration. Wash stained plate again, leaving residual volume of 50 μL. Add 50 uL/well of the 2×DiSBAC2(3) w/ABSC1. Stain for 30 minutes in the dark at RT.
(§4) The electrical stimulation instrument and methods of use are described in ION Channel Assay Methods PCT/US01/21652, herein incorporated by reference. The instrument comprises a microtiter plate handler, an optical system for exciting the coumarin dye while simultaneously recording the coumarin and oxonol emissions, a waveform generator, a current- or voltage-controlled amplifier, and a device for inserting electrodes in well. Under integrated computer control, this instrument passes user-programmed electrical stimulus protocols to cells within the wells of the microtiter plate.
(§5) Assay Protocol • 1. Insert or use electrodes into each well to be assayed. • 2. Use the current-controlled amplifier to deliver stimulation wave pulses for 3 s. Two seconds of pre-stimulus recording are performed to obtain the un-stimulated intensities. Five seconds of post-stimulation recording are performed to examine the relaxation to the resting state.
(§6) Data are analyzed and reported as normalized ratios of background-subtracted emission intensities measured in the 460 nm and 580 nm channels. Background intensities are then subtracted from each assay channel. Background intensities are obtained by measuring the emission intensities during the same time periods from identically treated assay wells in which there are no cells. The response as a function of time is then reported as the ratios obtained using the following formula: […]
Target sequence in this assay (Q9NY46 whole entry): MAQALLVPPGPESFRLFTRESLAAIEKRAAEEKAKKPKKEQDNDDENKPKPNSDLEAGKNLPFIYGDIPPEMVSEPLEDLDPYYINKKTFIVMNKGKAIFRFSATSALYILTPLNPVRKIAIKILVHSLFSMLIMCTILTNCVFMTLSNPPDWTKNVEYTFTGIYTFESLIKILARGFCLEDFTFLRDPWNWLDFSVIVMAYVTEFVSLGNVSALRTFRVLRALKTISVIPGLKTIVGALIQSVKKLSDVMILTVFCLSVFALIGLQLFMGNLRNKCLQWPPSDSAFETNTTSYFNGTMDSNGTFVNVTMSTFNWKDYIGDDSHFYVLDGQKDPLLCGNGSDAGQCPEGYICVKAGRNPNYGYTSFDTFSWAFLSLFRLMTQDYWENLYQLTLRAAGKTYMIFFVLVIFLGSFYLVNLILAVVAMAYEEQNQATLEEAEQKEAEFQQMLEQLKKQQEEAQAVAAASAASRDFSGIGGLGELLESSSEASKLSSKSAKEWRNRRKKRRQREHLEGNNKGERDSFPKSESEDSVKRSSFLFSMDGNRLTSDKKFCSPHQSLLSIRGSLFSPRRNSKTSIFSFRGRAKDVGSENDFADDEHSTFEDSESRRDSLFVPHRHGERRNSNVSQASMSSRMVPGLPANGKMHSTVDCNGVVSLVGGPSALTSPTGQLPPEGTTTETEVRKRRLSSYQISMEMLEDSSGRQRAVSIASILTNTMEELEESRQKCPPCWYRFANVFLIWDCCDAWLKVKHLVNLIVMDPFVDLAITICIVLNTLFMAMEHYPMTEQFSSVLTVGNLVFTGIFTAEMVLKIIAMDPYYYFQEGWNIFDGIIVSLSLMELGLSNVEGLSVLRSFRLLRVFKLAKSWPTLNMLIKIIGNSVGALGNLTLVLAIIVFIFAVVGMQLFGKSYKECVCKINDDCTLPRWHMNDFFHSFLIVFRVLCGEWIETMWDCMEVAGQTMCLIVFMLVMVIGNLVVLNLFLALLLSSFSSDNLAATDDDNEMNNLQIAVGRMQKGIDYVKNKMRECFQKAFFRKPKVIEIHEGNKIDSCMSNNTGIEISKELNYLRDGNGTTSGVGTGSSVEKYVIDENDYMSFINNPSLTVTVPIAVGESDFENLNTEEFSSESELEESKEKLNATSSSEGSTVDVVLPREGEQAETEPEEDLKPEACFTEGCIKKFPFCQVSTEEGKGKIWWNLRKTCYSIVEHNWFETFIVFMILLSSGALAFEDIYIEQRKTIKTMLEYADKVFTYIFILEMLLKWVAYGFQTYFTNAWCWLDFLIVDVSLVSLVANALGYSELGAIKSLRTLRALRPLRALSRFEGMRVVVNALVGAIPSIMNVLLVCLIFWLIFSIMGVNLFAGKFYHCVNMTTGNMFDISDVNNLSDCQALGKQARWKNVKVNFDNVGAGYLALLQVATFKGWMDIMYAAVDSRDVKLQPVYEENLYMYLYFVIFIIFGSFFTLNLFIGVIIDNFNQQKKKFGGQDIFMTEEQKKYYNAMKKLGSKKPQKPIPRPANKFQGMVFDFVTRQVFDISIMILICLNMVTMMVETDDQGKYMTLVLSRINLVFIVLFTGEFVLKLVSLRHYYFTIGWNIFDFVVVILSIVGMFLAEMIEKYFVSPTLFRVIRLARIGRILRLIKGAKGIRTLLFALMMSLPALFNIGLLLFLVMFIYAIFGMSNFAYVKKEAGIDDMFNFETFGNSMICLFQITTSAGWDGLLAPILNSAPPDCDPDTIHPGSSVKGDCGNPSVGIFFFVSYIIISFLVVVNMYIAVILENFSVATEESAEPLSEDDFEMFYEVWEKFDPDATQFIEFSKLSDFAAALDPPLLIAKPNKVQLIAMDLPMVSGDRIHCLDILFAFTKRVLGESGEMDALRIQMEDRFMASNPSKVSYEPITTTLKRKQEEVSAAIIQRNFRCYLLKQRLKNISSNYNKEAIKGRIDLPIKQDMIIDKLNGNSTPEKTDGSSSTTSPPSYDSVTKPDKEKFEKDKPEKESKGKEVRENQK

NaV1.8 [2] = target: T2, NaV1.8 (Homo sapiens, UniProt Q9Y5Y9); experiment: NaV inhibition, optical membrane potential assay (analogous mode); type: cell-based; conditions: activity against NaV 1.8 channel
Procedure: as §1, §2, §3, §4, §5, §6
(§7) The data is further reduced by calculating the initial (Ri) and final (Rf) ratios. These are the average ratio values during part or all of the pre-stimulation period, and during sample points during the stimulation period. The response to the stimulus ρ=Rf/Ri is then calculated.
(§8) Control responses are obtained by performing assays in the presence of a compound with the desired properties (positive control) and in the absence of pharmacological agents (negative control). Responses to the negative (N) and positive (P) controls are calculated as above. The activity A of the assay well relative to positive and negative controls is defined as: […]
Target sequence in this assay (Q9Y5Y9 whole entry): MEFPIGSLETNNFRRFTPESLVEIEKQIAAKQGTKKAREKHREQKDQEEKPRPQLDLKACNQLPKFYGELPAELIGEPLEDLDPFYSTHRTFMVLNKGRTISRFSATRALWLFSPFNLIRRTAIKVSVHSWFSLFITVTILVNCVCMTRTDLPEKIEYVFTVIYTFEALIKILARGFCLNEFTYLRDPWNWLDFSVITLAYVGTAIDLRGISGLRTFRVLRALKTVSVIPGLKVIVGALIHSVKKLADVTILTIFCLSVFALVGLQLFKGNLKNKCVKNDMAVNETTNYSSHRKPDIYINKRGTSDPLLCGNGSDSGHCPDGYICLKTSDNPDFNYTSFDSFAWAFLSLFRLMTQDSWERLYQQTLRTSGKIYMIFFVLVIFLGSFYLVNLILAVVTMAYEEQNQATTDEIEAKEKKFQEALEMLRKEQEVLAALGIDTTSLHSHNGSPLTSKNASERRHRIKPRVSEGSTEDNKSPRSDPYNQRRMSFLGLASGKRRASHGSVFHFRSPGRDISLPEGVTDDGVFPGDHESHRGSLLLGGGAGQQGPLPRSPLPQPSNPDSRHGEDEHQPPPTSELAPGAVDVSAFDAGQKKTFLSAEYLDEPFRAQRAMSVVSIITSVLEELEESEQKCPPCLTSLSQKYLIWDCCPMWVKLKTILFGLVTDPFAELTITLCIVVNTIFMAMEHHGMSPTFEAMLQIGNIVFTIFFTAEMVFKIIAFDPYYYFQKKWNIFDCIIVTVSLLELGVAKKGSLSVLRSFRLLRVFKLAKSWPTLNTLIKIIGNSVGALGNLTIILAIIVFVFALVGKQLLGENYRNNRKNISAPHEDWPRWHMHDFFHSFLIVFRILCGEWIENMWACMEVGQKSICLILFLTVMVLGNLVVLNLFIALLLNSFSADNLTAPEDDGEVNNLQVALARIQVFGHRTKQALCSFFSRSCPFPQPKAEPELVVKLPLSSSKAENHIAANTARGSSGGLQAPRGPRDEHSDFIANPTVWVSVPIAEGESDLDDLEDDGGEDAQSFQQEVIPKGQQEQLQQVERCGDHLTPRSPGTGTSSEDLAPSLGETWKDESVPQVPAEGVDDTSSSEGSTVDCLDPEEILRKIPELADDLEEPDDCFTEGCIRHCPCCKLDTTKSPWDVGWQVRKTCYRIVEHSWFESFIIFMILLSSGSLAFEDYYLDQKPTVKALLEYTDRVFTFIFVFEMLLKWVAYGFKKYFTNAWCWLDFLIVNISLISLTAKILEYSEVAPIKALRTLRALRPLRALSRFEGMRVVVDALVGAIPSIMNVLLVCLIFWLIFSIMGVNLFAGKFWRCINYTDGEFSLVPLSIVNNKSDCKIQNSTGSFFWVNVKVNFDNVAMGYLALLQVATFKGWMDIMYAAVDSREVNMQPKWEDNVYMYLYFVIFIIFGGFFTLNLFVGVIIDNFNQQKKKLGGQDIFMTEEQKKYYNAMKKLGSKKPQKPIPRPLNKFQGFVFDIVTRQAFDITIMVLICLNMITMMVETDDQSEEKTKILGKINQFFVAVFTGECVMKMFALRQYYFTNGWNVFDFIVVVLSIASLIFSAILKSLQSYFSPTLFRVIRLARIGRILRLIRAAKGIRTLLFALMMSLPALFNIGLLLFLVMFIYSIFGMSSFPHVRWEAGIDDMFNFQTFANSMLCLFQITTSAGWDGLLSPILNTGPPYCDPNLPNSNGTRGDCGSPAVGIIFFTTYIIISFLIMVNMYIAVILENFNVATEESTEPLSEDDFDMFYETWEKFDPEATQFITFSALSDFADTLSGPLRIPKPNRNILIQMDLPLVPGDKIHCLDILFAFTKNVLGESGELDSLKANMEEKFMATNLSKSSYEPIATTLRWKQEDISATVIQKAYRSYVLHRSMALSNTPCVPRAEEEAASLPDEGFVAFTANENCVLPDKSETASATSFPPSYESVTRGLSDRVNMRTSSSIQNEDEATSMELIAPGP

NaV 1.7 channel = NaV 1.7 channel (Homo sapiens, UniProt Q15858); experiment: as above; type: cell-based; conditions: activity against NaV 1.7 channel
Procedure: as §1, §2, §3, §4, §5, §6, §7, §8

NaV1.6 = NaV1.6 (Homo sapiens, UniProt Q9UQD0); conditions: read-out: TTX IC50; cited from earlier work
NaV1.3 [3] = target: T1, NaV1.3; conditions: read-out: TTX IC50; cited from earlier work
Target sequence in this assay (Q9NY46 whole entry, looked up): as the sequence (Q9NY46 whole entry) above

NaV1.8 [4] = target: T2, NaV1.8; conditions: read-out: TTX IC50; cited from earlier work
Target sequence in this assay (Q9Y5Y9 whole entry, looked up): as the sequence (Q9Y5Y9 whole entry) above

NaV1.9 = NaV1.9 (Homo sapiens, UniProt Q9UI33); conditions: read-out: TTX IC50; cited from earlier work

Row | Structure (SMILES) | IC50 (NaV1.3 [1]) | IC50 (NaV1.8 [2]) | IC50 (NaV 1.7 channel) | IC50 (NaV1.6) | IC50 (NaV1.3 [3]) | IC50 (NaV1.8 [4]) | IC50 (NaV1.9)
1 | Cc1ncccc1Oc1cc(C(C)(C)C)ccc1C(=O)Nc1cncc(S(N)(=O)=O)c1 [Compound 1] | > 20 µM | < 2 µM | > 20 µM |  |  |  | 
2 | CC(C)(C)c1ccc(C(=O)Nc2cncc(S(N)(=O)=O)c2)c(Oc2ccc(F)cc2Cl)c1 [Compound 2] | 2 to 10 µM | < 2 µM | 2 to 10 µM |  |  |  | 
3 | CC(C)(C)c1ccc(C(=O)Nc2cncc(S(N)(=O)=O)c2)c(Oc2ccc(C(F)(F)F)nc2)c1 [Compound 3] | 10 to 20 µM | < 2 µM | 2 to 10 µM |  |  |  | 
4 | CC(C)(C)c1ccc(C(=O)Nc2cncc(S(N)(=O)=O)c2)c(Oc2cccc(C(F)(F)F)n2)c1 [Compound 4] | 10 to 20 µM | < 2 µM | > 20 µM |  |  |  | 
5 | NS(=O)(=O)c1cncc(NC(=O)c2ccc(C(F)(F)F)cc2Oc2ccc(C(F)(F)F)nc2)c1 [Compound 5, N-(5-Sulfamoylpyridin-3-yl)-4-(trifluoromethyl)-2-(6-(trifluoromethyl)pyridin-3-yloxy)benzamide] | > 20 µM | 2 to 10 µM | > 20 µM |  |  |  | 
6 | CC(C)(C)c1ccc(C(=O)Nc2cncc(S(C)(=O)=O)c2)c(Oc2ccc(C(F)(F)F)nc2)c1 [Compound 6, 4-tert-Butyl-N-(5-(methylsulfonyl)pyridin-3-yl)-2-(6-(trifluoromethyl)pyridin-3-yloxy)benzamide] | 10 to 20 µM | 2 to 10 µM | > 20 µM |  |  |  | 
7 | CC(C)(C)c1ccc(C(=O)Nc2cncc(S(C)(=O)=O)c2)c(Oc2ccc(F)cc2Cl)c1 [Compound 7] | 10 to 20 µM | < 2 µM | 10 to 20 µM |  |  |  | 
8 | CS(=O)(=O)c1cncc(NC(=O)c2ccc(C(F)(F)F)cc2Oc2ccc(C(F)(F)F)nc2)c1 [Compound 8] | > 20 µM | 2 to 10 µM | > 20 µM |  |  |  | 
9 | CC(C)(C)c1ccc(C(=O)Nc2cncc(S(C)(=O)=O)c2)c(Oc2cccc(C(F)(F)F)n2)c1 [Compound 9] | 10 to 20 µM | 2 to 10 µM | 10 to 20 µM |  |  |  | 
10 | NC1=N[C@H](O)[C@H]2[C@H]3O[C@]4(O)O[C@@H]([C@@H](O)[C@@]2(N1)[C@@H]4O)[C@]3(O)CO [TTX, tetrodotoxin] |  |  |  | 0.006 µM | 0.015 µM | > 50 µM | 1 µM
